Assay results as given in article PMC6161601 (Journal of Enzyme Inhibition and Medicinal Chemistry, 2018).
“And” between values parts separate entries of the source, which are not always exact repeats. Equal entries are not always repeated. “Also recorded” adds a separate entry of the source. Where two headings read alike, the source gives them in different places.

Columns and labels:
[1] = biological target: T1, human erythrocyte acetylcholinesterase (AChE) (Homo sapiens, UniProt P22303); assay: biochemical; conditions: for SI AChE: IC50 BChE/IC50 AChE; for IC50: human erythrocyte AChE, mean ± SD of three independent experiments
T1 construct: from tissue; host or cells: haemolysed erythrocytes of healthy human donors
Procedure: (§1) Blood samples were obtained from healthy donors from the Voievodal Specialized Hospital in Łódź, Poland (Wojewódzki Specjalistyczny Szpital im. Dr W. Biegańskiego w Łodzi). The blood was collected into vacuum tubes containing sodium citrate. Erythrocytes were separated from plasma by centrifugation (3000 × g, 10 min, 20 °C) with a Micro 22 R centrifuge (Hettich ZENTRIFUGEN, Tuttlingen, Germany) and washed three times with 0.9% saline. Afterwards, red cells were haemolysed by freezing and stored at a temperature of –30 °C; before each experiment, they were restored at 37° C for 15 min and used to determine AChE activity. […] The studies on the biological material were approved by the Bioethics Committee of the Medical University of Lodz (RNN/27/18/KE).
(§2) The activity of both cholinesterases (AChE and BuChE) were conducted using a spectrophotometric method developed by Ellman with previously described modifications[25]^,[30]. […] 400-fold diluted solution of haemolysed erythrocytes or diluted plasma (200 times) was incubated for 15 min (37° C) with DTNB and tested compound at an appropriate concentration, and the reaction was started by addition of substrate (ATC or BTC). The final volume of a sample was 500 µL.
(§3) AChE Selectivity Index (SI) was calculated with the aid of the following formula: SI = IC50 of BChE/IC50 of AChE. In turn BuChE SI was defined as IC50 of AChE/IC50 of BChE. Linear regression (Hanes–Woolf plots) were used to estimate the maximal velocity (Vmax) and the Michaelis constant (Km).

[2] = biological target: T2, human plasma butyrylcholinesterase (BuChE) (Homo sapiens, UniProt P06276); assay: biochemical; conditions: for IC50: human plasma BuChE, mean ± SD of three independent experiments; for SI BuChE: IC50(AChE)/IC50(BChE)
T2 construct: Plasma for determination of BuChE activity was obtained by centrifuging the blood; from tissue; host or cells: plasma of healthy human donors
Procedure: as §1, §2, §3

[3] = biological target: T1, human erythrocyte acetylcholinesterase (AChE); assay: Kinetic parameters and type of AChE inhibition (Hanes–Woolf); format: biochemical; conditions: for Vmax(i) AChE: mean ± SD; for vmax AChE, individual experiments B1–B3: inhibitor at 1/3 of IC50; for vmax AChE, individual experiments C1–C3: inhibitor at IC50
Procedure: (§4) The absorbance was recorded at λ = 436 nm using a CECIL 2021 spectrophotometer (CECIL Instruments Limited, Cambridge, UK) with a thermostatic water flow (temperature 37° C).
as §3
(§5) To establish the type of inhibition, additional experiments were conducted with various concentrations of substrates (ATC, BTC), and the kinetic parameters of the enzymatic reactions were obtained using Hanes–Woolf equation, which is a graphical representation of enzyme kinetics in which the ratio of the initial substrate concentration [S] to the reaction velocity v is plotted against [S]. […]

[4] = biological target: T2, human plasma butyrylcholinesterase (BuChE); assay: Kinetic parameters and type of BuChE inhibition (Hanes–Woolf); format: biochemical; conditions: for Vmax(i) BuChE: mean ± SD; for vmax BuChE, individual experiments B1–B3: inhibitor at 1/3 of IC50; for vmax BuChE, individual experiments C1–C3: inhibitor at IC50
Procedure: as §4, §3, §5

BuChE [5] = biological target: T3, BuChE (Homo sapiens, UniProt P06276); assay: BuChE inhibition with excess of substrate (BTC); format: biochemical; conditions: BTC 2.5 mmol/L
T3 construct: Plasma for determination of BuChE activity was obtained by centrifuging the blood; from tissue; host or cells: plasma of healthy human donors

Aβ42 peptide = biological target: T4, Aβ42 peptide (Homo sapiens, UniProt P05067); assay: Beta-amyloid (Aβ 1–42) aggregation, SensoLyte ThT kit; format: biochemical
T4 construct: Beta-amyloid (Aβ 1–42) aggregation studies were conducted using SensoLyte ThT Aβ42 Aggregation kit; purchased AnaSpec, Inc, Fremont, CA
Procedure: Beta-amyloid (Aβ 1–42) aggregation studies were conducted using SensoLyte ThT Aβ42 Aggregation kit (AnaSpec, Inc, Fremont, CA). Aβ42 peptide was dissolved in cold (4 °C) assay buffer and left to hydrate for a few minutes. The solution was spined at 10,000 rpm for 5 min at 4 °C to centrifuge out any precipitated material. […] The final volume of the test samples was 100 µL. Simultaneously, the positive control and negative control containing morin at the final concentration of 100 µmol/L were established. […] The measurements of fluorescence intensity expressed as relative fluorescence units (RFU) were taken for 90 min with 5 min intervals. The fluorescence intensity measured for positive control equals 100% of Aβ aggregation and was used for estimation of inhibition properties of tested biguanides.
Statistical analysis of data obtained in Aβ aggregation assay was conducted with a commercially available package (GraphPad Prism 5, La Jolla, CA). The results were expressed as the mean ± standard deviation (SD) of measurements conducted in triplicates or quadruplicates. One or two-way ANOVA and subsequent post hoc tests were used for intergroup comparisons. The results were considered significant at p values lower than 0.05.

AChE = biological target: T5, AChE (Homo sapiens, UniProt P22303); format: biochemical
T5 construct: 400-fold diluted solution of haemolysed erythrocytes or diluted plasma (200 times) was incubated; from tissue; host or cells: haemolysed erythrocytes of healthy human donors

[6] = biological target: T1, human erythrocyte acetylcholinesterase (AChE); conditions: previous study; cited from earlier work
BuChE [7] = biological target: T3, BuChE; conditions: BTC 0.75 mmol/L; previously published; cited from earlier work

T4 sequence (P05067 672-713): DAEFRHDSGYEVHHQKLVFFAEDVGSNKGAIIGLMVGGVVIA
T1 sequence (P22303 other isoform, or with tags, fused parts or gaps): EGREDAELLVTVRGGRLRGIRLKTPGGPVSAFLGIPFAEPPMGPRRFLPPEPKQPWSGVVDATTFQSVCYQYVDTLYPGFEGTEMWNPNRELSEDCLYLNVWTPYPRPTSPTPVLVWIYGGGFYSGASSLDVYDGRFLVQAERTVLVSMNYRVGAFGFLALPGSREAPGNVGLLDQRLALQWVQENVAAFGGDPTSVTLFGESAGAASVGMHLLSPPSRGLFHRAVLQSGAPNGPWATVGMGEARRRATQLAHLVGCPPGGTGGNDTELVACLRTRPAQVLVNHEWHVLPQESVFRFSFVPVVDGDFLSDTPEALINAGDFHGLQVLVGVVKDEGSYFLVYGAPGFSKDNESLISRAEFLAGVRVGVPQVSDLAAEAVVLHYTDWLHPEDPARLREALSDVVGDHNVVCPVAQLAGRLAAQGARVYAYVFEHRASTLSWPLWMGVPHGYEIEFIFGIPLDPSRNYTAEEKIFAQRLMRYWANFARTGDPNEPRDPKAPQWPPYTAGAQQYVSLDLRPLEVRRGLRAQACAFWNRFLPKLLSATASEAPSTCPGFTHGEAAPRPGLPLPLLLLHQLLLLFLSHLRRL
T3 sequence (P06276 29-602): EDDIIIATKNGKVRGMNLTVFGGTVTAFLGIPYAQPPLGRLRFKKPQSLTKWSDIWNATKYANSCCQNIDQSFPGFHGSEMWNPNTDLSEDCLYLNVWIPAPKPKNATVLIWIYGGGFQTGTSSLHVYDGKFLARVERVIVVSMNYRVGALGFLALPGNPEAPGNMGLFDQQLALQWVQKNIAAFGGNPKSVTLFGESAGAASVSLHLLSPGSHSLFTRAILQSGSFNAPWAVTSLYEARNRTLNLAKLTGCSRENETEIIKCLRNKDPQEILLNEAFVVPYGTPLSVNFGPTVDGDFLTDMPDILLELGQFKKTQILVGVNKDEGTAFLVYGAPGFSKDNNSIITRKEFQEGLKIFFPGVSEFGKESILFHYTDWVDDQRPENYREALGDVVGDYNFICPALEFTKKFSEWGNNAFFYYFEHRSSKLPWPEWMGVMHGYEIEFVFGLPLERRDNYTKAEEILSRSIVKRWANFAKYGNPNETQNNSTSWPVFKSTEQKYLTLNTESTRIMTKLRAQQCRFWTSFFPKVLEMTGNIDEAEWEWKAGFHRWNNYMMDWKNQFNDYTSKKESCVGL
T2 sequence (P06276 29-602): as above
T5 sequence (P22303 other isoform, or with tags, fused parts or gaps): as the sequence (P22303 other isoform, or with tags, fused parts or gaps) above

Structure (SMILES): CCCCCCSNC(N)=NC(=N)N(C)C [Compound 1]
- SI AChE [1]: 0.59
- IC50 [1]: 3.17 ± 0.411 mM
- IC50 [2]: 1880 ± 558 µM
- type of AChE inhibition [3]: non-competitive inhibition; also recorded: noncompetitively
- vmax AChE, mean ± SD ([3]; B: inhibitor at 1/3 of IC50): 202.18 ± 7.39 mA/min
- Vmax(i) AChE ([3]; B: inhibitor at 1/3 of IC50): 0.202 ± 0.007 A/min
- vmax AChE, mean ± SD ([3]; C: inhibitor at IC50): 161.59 ± 24.42 mA/min
- Vmax(i) AChE ([3]; C: inhibitor at IC50): 0.161 ± 0.024 A/min
- vmax AChE, individual experiments B1–B3 [3]: 200.260 mA/min and 210.362 mA/min and 195.955 mA/min
- vmax AChE, individual experiments C1–C3 [3]: 141.006 mA/min and 155.200 mA/min and 188.583 mA/min
- I: type of inhibition, BuChE [4]: M (M: mixed type)
- type of BuChE inhibition [4]: mixed-type inhibition; also recorded: mixed manner
- vmax BuChE, mean ± SD ([4]; B: inhibitor at 1/3 of IC50): 206.94 ± 15.02 mA/min
- Vmax(i) BuChE ([4]; B: inhibitor at 1/3 of IC50): 0.207 ± 0.015 A/min
- vmax BuChE, mean ± SD ([4]; C: inhibitor at IC50): 174.27 ± 11.70 mA/min
- Vmax(i) BuChE ([4]; C: inhibitor at IC50): 0.174 ± 0.012 A/min
- vmax BuChE, individual experiments B1–B3 [4]: 195.000 mA/min and 223.809 mA/min and 202.024 mA/min
- vmax BuChE, individual experiments C1–C3 [4]: 161.000 mA/min and 178.705 mA/min and 183.120 mA/min

Structure (SMILES): CCCCC(CC)CSNC(N)=NC(=N)N(C)C (stereo not shown) [Compound 2]
- SI AChE [1]: 0.09
- IC50 [1]: 3.68 ± 0.693 mM
- IC50 [2]: 335 ± 107 µM
- I: type of inhibition, AChE [3]: M (M: mixed type)
- type of AChE inhibition [3]: mixed type
- vmax AChE, mean ± SD ([3]; B: inhibitor at 1/3 of IC50): 218.43 ± 5.69 mA/min
- Vmax(i) AChE ([3]; B: inhibitor at 1/3 of IC50): 0.218 ± 0.005 A/min
- vmax AChE, mean ± SD ([3]; C: inhibitor at IC50): 160.75 ± 10.82 mA/min
- Vmax(i) AChE ([3]; C: inhibitor at IC50): 0.160 ± 0.011 A/min
- vmax AChE, individual experiments B1–B3 [3]: 225.000 mA/min and 215.564 mA/min and 214.749 mA/min
- vmax AChE, individual experiments C1–C3 [3]: 153.011 mA/min and 156.143 mA/min and 173.124 mA/min
- I: type of inhibition, BuChE [4]: M (M: mixed type)
- type of BuChE inhibition [4]: mixed manner; also recorded: mixed-type
- vmax BuChE, mean ± SD ([4]; B: inhibitor at 1/3 of IC50): 182.27 ± 9.29 mA/min
- Vmax(i) BuChE ([4]; B: inhibitor at 1/3 of IC50): 0.182 ± 0.009 A/min
- vmax BuChE, mean ± SD ([4]; C: inhibitor at IC50): 103.11 ± 19.12 mA/min
- Vmax(i) BuChE ([4]; C: inhibitor at IC50): 0.103 ± 0.019 A/min
- vmax BuChE, individual experiments B1–B3 [4]: 192.871 mA/min and 178.466 mA/min and 175.485 mA/min
- vmax BuChE, individual experiments C1–C3 [4]: 115.727 mA/min and 81.110 mA/min and 112.514 mA/min

Structure (SMILES): CN(C)C(=N)N=C(N)NS(=O)(=O)c1ccc([N+](=O)[O-])cc1 [Compound 3]
- SI AChE [1]: 0.15
- IC50 [1]: 3.82 ± 0.278 mM
- SI BuChE [2]: 6.82
- IC50 [2]: 561 ± 192 µM
- I: type of inhibition, AChE [3]: M (M: mixed type)
- type of AChE inhibition [3]: mixed inhibition; also recorded: mixed way
- vmax AChE, mean ± SD ([3]; B: inhibitor at 1/3 of IC50): 147.43 ± 22.32 mA/min
- Vmax(i) AChE ([3]; B: inhibitor at 1/3 of IC50): 0.147 ± 0.022 A/min
- vmax AChE, mean ± SD ([3]; C: inhibitor at IC50): 112.29 ± 24.418 mA/min
- Vmax(i) AChE ([3]; C: inhibitor at IC50): 0.112 ± 0.024 A/min
- vmax AChE, individual experiments B1–B3 [3]: 173.106 mA/min and 136.619 mA/min and 132.580 mA/min
- vmax AChE, individual experiments C1–C3 [3]: 136.281 mA/min and 87.466 mA/min and 113.130 mA/min
- I: type of inhibition, BuChE [4]: M (M: mixed type)
- type of BuChE inhibition [4]: mixed manner
- vmax BuChE, mean ± SD ([4]; B: inhibitor at 1/3 of IC50): 207.61 ± 5.30 mA/min
- Vmax(i) BuChE ([4]; B: inhibitor at 1/3 of IC50): 0.208 ± 0.005 A/min
- vmax BuChE, mean ± SD ([4]; C: inhibitor at IC50): 180.05 ± 19.37 mA/min
- Vmax(i) BuChE ([4]; C: inhibitor at IC50): 0.180 ± 0.019 A/min
- vmax BuChE, individual experiments B1–B3 [4]: 207.848 mA/min and 202.204 mA/min and 212.802 mA/min
- vmax BuChE, individual experiments C1–C3 [4]: 166.268 mA/min and 171.680 mA/min and 202.204 mA/min

Structure (SMILES): CN(C)C(=N)N=C(N)NS(=O)(=O)c1ccccc1[N+](=O)[O-] [Compound 4]
- SI AChE [1]: 0.30
- IC50 [1]: 2.86 ± 0.283 mM
- SI BuChE [2]: 3.28
- IC50 [2]: 871 ± 227 µM
- I: type of inhibition, AChE [3]: M (M: mixed type)
- type of AChE inhibition [3]: mixed inhibition
- vmax AChE, mean ± SD ([3]; B: inhibitor at 1/3 of IC50): 162.74 ± 5.00 mA/min
- Vmax(i) AChE ([3]; B: inhibitor at 1/3 of IC50): 0.163 ± 0.005 A/min
- vmax AChE, mean ± SD ([3]; C: inhibitor at IC50): 118.77 ± 19.443 mA/min
- Vmax(i) AChE ([3]; C: inhibitor at IC50): 0.119 ± 0.019 A/min
- vmax AChE, individual experiments B1–B3 [3]: 161.000 mA/min and 168.393 mA/min and 158.846 mA/min
- vmax AChE, individual experiments C1–C3 [3]: 110.000 mA/min and 141.058 mA/min and 105.263 mA/min
- type of BuChE inhibition [4]: non-competitively
- vmax BuChE, mean ± SD ([4]; B: inhibitor at 1/3 of IC50): 229.87 ± 19.38 mA/min
- Vmax(i) BuChE ([4]; B: inhibitor at 1/3 of IC50): 0.229 ± 0.019 A/min
- vmax BuChE, mean ± SD ([4]; C: inhibitor at IC50): 174.32 ± 5.91 mA/min
- Vmax(i) BuChE ([4]; C: inhibitor at IC50): 0.174 ± 0.006 A/min
- vmax BuChE, individual experiments B1–B3 [4]: 229.000 mA/min and 249.675 mA/min and 210.944 mA/min
- vmax BuChE, individual experiments C1–C3 [4]: 174.000 mA/min and 180.395 mA/min and 168.586 mA/min

Structure (SMILES): CN(C)C(=N)N=C(N)N [Metformin, metformin, reference compound]
- effect on BuChE activity (words) (BuChE [5]): did not reveal anti-BuChE activity
- effect on BuChE activity (words) (BuChE [5]; listed as metformin): not to affect the enzyme activity
- inhibition at 3000 µM (BuChE [5]; metformin at 3 mmol/L): 1.1 ± 0.51%
- inhibition at 600 µM (Aβ42 peptide; 600 µmol/L, read-out: maximal inhibition of Aβ aggregation): 11.3%
- effect on Aβ fibrillation vs positive control (Aβ42 peptide; both tested concentrations, 5–90 min): did not significantly affect; also recorded: not to significantly affect
- type of AChE inhibition (AChE; at 1/2 IC50 for AChE): mixed-type
- Vmax AChE (AChE; each at 1/2 IC50 for AChE: metformin 1175, donepezil 0.0125, compound 5 106.0 µmol/L, alone or in mixture): 0.179 ± 0.020 A/min
- type of AChE inhibition [6]: mixed inhibition
- BuChE inhibition (BuChE [7]): up to 21.2%
